ChEMBL document CHEMBL1132676, “Resolution of a CPzI precursor, synthesis and biological evaluation of (+) and (-)-N-Boc-CPzI: a further validation of the relationship between chemical solvolytic stability and cytotoxicity” (Bioorg Med Chem Lett, 1999)

Experiments:
[1] = The compound was evaluated for the chemical solvolytic stability at a pH 3; type: physicochemical; settings: buffer
L1210 = experiment: In vitro cytotoxicity against L1210 murine leukemia cell lines; type: functional, cell-based; settings: Mus musculus

| SMILES | half-life [1] [h] | IC50 (L1210) [nM] | T1/2 [1] [h] |
| --- | --- | --- | --- |
| COC(=O)c1cc2c([nH]1)C(=O)C=C1N(C(=O)OC(C)(C)C)C[C@H]3C[C@]123 | 177 | 6 |  |
| Cc1n[nH]c2c1[C@@]13C[C@@H]1CN(C(=O)OC(C)(C)C)C3=CC2=O |  | 206 |  |
| Cc1c[nH]c2c1[C@@]13C[C@@H]1CN(C(=O)OC(C)(C)C)C3=CC2=O |  |  | 37 |
| Cc1n[nH]c2c1[C@]13C[C@H]1CN(C(=O)OC(C)(C)C)C3=CC2=O |  | 923 |  |
| Cc1n[nH]c2c1C13CC1CN(C(=O)OC(C)(C)C)C3=CC2=O (centres undefined) | 110 | 370 |  |
| CC(C)(C)OC(=O)N1C[C@H]2C[C@@]23C1=CC(=O)c1ccccc13 | 133 | 80 |  |
